The target in data set [1] is JAK2: Recombinant human kinase domain (Homo sapiens, UniProt O60674). The data set can be described thus: JAK2 kinase inhibition, radioactive end-point assay. Format: biochemical. As to conditions: 1 nM JAK2, ATP 1.5 uM, peptide 50 uM, 20 minutes, room temperature; read-out: IC50 h-jak2-sf21-c. The text has this: (§1) Determination of IC50 of Janus Kinase (JAK) Inhibition: […]

Data set [2] deals with JAK3: Recombinant human kinase domain (Homo sapiens, UniProt P52333). Kind of data set: JAK3 kinase inhibition, radioactive end-point assay. In kind it is biochemical. Conditions: 0.5 nM or 0.2 nM JAK3, ATP 1.5 uM, peptide 50 uM, 20 minutes, room temperature; read-out: IC50 h-jak3-sf21-c.
Source text: as §1

The target in data set [3] is T1, recombinant human SYK360-635 (Homo sapiens, UniProt P43405).
T1 construct: truncated construct of Spleen Tyrosine Kinase aa 360-635; made in house
The data set can be described thus: SYK kinase assay, 33P ATP incorporation into biotinylated peptide. Format: biochemical. As to conditions: 0.5 nM SYK aa 360-635, ATP 20 μM, peptide 5 μM, 15 min at 30° C.; read-out: IC50 h-syk (360-635)-baculovirus-c. Here is the method: SYK Assay Information Determination of IC50 of Spleen Tyrosine Kinase (SYK) Inhibition:
SYK kinase assay is a standard kinase assay adapted to a 96 well plate format. This assay is performed in 96-well format for IC50 determination with 8 samples which represented 10 half log dilutions and a 40 μL reaction volume. The assay measures the incorporation of radiolabeled ^33P γATP into an N-terminally biotinylated peptide substrate, derived from naturally occurring phosphoacceptor consensus sequence (Biotin-11aa DY*E). Phosphorylated products were detected upon termination of reactions with EDTA and the addition of Streptavidin coated beads. […]
The unbound radionucleotides were washed under vacuum with 3×250 μL 2M NaCl; 2×250 μL 2M NaCl+1% phosphoric acid; 1×250 μL H2O. After the last wash membrane/plates were transferred to an adaptor plate, heat dried for 15 min at 60° C., and 50 μL scintillation cocktail was added to each well and 4 h later the amount of radioactivity was counted in a top counter.
The percent inhibition was calculated based on the uninhibited enzyme rate: % Inhibition=100/(1+(IC50/Inhibitor cone)^n) • The IC50 was calculated using a non-linear curve fit with XLfit software (ID Business Solution Ltd., Guilford, Surrey, UK).

For data set [4], the target named is JAK1: Recombinant human kinase domain (Homo sapiens, UniProt P23458). The data set can be described thus: JAK1 kinase inhibition, radioactive end-point assay. In kind it is biochemical. As to conditions: 5 nM JAK1, ATP 10 uM, peptide 50 uM, 40 minutes, room temperature; read-out: IC50 h-jak1-sf21-c.
Source text: as §1

Chain of JAK3: Recombinant human kinase domain (P52333 822-1111 limits assumed): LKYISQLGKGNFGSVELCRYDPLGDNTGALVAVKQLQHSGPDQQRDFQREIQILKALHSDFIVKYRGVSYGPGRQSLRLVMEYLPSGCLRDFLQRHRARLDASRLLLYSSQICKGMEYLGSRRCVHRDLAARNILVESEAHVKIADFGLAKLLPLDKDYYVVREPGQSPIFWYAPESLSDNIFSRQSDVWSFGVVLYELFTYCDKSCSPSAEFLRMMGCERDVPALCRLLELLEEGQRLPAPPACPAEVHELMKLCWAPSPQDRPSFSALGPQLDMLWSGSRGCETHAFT
Chain of JAK2: Recombinant human kinase domain (O60674 849-1124 limits assumed): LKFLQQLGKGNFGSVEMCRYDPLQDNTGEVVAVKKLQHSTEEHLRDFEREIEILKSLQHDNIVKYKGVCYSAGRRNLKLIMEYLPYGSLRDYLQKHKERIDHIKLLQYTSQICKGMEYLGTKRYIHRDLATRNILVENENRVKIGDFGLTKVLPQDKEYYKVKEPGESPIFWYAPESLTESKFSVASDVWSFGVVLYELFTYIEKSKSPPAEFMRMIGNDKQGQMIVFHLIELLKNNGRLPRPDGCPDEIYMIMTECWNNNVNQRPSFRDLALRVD
Chain of JAK1: Recombinant human kinase domain (P23458 875-1153 limits assumed): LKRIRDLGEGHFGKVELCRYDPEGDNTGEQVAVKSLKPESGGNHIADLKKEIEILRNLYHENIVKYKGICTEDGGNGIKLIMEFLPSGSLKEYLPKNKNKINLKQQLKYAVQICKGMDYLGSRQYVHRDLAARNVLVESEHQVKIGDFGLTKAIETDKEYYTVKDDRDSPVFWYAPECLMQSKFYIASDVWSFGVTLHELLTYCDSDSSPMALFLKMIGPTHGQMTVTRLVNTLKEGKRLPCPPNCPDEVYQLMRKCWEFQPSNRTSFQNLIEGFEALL

In general, IC50 refers to the point on the concentration scale where inhibition reaches its midpoint. On to `COc1cc(-c2cnc3[nH]cc(C(=O)C(C)(C)C)c3n2)cc(OC)c1OC` [Example I-12, 2,2-Dimethyl-1-[2-(3,4,5-trimethoxy-phenyl)-5H-pyrrolo[2,3-b]pyrazin-7-yl]-propan-1-one], for which the IC50 worked out at 455 nM in data set [1], 56.1 nM in data set [2] and 317 nM in data set [3]. As to `CC(C)(C)C(=O)c1c[nH]c2ncc(-c3cccc(N4CCCC4)c3)nc12` [Example I-64, 2,2-Dimethyl-1-[2-(3-pyrrolidin-1-yl-phenyl)-5H-pyrrolo[2,3-b]pyrazin-7-yl]-propan-1-one], the 50% inhibitory concentration (IC50) in data set [1] is 3440 nM; in data set [2] it was 24.1 nM; in data set [4], 2100 nM; in data set [3], 1310 nM. Regarding `COc1cc(-c2cnc3[nH]cc(C(=O)NCC(C)OC)c3n2)cc(OC)c1OC` (stereo not shown) [Example I-82, 2-(3,4,5-Trimethoxy-phenyl)-5H-pyrrolo[2,3-b]pyrazine-7-carboxylic acid (2-methoxy-propyl)-amide], the half-maximal inhibitory concentration (IC50) in data set [1] is 10.8 nM; in data set [2], 4.6 nM; in data set [4], 90 nM; in data set [3], 36 nM. For the molecule `COc1cc(-c2cnc3[nH]cc(C(=O)C4(C)CCCCC4)c3n2)cc(OC)c1OC` [Example I-117, (1-Methyl-cyclohexyl)-[2-(3,4,5-trimethoxy-phenyl)-5H-pyrrolo[2,3-b]pyrazin-7-yl]-methanone], the IC50 in data set [1] was determined as 107 nM; in data set [2], 6.8 nM; in data set [3] it was 162 nM. The melting point is the temperature of the solid-liquid transition. Molecule `COc1cc(-c2cnc3[nH]cc(C(=O)N4CCC(C)(C)C4)c3n2)cc(OC)c1OC` [Example I-395, (3,3-Dimethyl-pyrrolidin-1-yl)-[2-(3,4,5-trimethoxy-phenyl)-5H-pyrrolo[2,3-b]pyrazin-7-yl]-methanone] registered a melting point of 228 to 230 °C. Take `CC(C)(C)C(=O)c1c[nH]c2ncc(-c3cccc(N4CCC(O)C4)c3)nc12` (stereo not shown) [Example I-402, 1-{2-[3-(3-Hydroxy-pyrrolidin-1-yl)-phenyl]-5H-pyrrolo[2,3-b]pyrazin-7-yl}-2,2-dimethyl-propan-1-one]: the melting point was in the range of 245 to 248 °C. On the same count and under the same terms, next, `CC(C)(C)C(=O)c1c[nH]c2ncc(-c3cccc(NCCS(C)(=O)=O)c3)nc12` [Example I-407, 1-{2-[3-(2-Methanesulfonyl-ethylamino)-phenyl]-5H-pyrrolo[2,3-b]pyrazin-7-yl}-2,2-dimethyl-propan-1-one]: 205 to 206 °C. Molecule `CC(=O)Nc1ccc(S(=O)(=O)Nc2cccc(-c3cnc4[nH]cc(C(=O)C(C)(C)C)c4n3)c2)cc1` [Example I-412, N-(4-{3-[7-(2,2-Dimethyl-propionyl)-5H-pyrrolo[2,3-b]pyrazin-2-yl]-phenylsulfamoyl}-phenyl)-acetamide] displayed a melting point of 226 to 228 °C. On the same count and under the same terms, next, `CC(=O)Nc1ccc(S(=O)(=O)Nc2cc(-c3cnc4[nH]cc(C(=O)C(C)(C)C)c4n3)ccc2C)cc1` [Example I-415, N-(4-{5-[7-(2,2-Dimethyl-propionyl)-5H-pyrrolo[2,3-b]pyrazin-2-yl]-2-methyl-phenylsulfamoyl}-phenyl)-acetamide]: 274 to 276 °C; `Cc1ccc(-c2cnc3[nH]cc(C(=O)C(C)(C)C)c3n2)cc1NS(=O)(=O)c1ccc(N)cc1` [Example I-416, 4-Amino-N-{5-[7-(2,2-dimethyl-propionyl)-5H-pyrrolo[2,3-b]pyrazin-2-yl]-2-methyl-phenyl}-benzenesulfonamide]: 264 to 266 °C. `CC1(O)CCN(c2cccc(-c3cnc4[nH]cc(C(=O)C(C)(C)C)c4n3)c2)C1` (stereo not shown) [Example I-417, 1-{2-[3-(3-Hydroxy-3-methyl-pyrrolidin-1-yl)-phenyl]-5H-pyrrolo[2,3-b]pyrazin-7-yl}-2,2-dimethyl-propan-1-one] gave a melting point of 237 to 239 °C. Same read-out and setting: next, `COc1cc(-c2cnc3[nH]cc(C(=O)O)c3n2)cc(OC)c1OC` [Example I-490, 2-(3,4,5-Trimethoxy-phenyl)-5H-pyrrolo[2,3-b]pyrazine-7-carboxylic acid]: 237.8 to 238.4 °C.

The values above are taken from patent US8008298B2, “Pyrrolopyrazine kinase inhibitors” (Roche Palo Alto, priority 2008, dated 2011).
